Test results taken from ChEMBL document CHEMBL2177093, “The design and identification of brain penetrant inhibitors of phosphoinositide 3-kinase α” (J Med Chem, 2012).
One block for each molecule: values may come before it.

Assays:
mouse Bcrp1 = assay: in vitro; settings: dog
PC-3 = assay: Antiproliferative activity against human PC3 cells incubated for 3 days; type: functional, cell-based; settings: PC-3, 72 h
[1] = molecular target: Phosphatidylinositol 4,5-bisphosphate 3-kinase catalytic subunit alpha isoform (Homo sapiens, UniProt P42336); assay: Inhibition of PI3Kalpha assessed as reduction in PIP3 formation after 30 mins by fluorescence polarization assay
Chain of Phosphatidylinositol 4,5-bisphosphate 3-kinase catalytic subunit alpha isoform (P42336 whole entry, canonical isoform): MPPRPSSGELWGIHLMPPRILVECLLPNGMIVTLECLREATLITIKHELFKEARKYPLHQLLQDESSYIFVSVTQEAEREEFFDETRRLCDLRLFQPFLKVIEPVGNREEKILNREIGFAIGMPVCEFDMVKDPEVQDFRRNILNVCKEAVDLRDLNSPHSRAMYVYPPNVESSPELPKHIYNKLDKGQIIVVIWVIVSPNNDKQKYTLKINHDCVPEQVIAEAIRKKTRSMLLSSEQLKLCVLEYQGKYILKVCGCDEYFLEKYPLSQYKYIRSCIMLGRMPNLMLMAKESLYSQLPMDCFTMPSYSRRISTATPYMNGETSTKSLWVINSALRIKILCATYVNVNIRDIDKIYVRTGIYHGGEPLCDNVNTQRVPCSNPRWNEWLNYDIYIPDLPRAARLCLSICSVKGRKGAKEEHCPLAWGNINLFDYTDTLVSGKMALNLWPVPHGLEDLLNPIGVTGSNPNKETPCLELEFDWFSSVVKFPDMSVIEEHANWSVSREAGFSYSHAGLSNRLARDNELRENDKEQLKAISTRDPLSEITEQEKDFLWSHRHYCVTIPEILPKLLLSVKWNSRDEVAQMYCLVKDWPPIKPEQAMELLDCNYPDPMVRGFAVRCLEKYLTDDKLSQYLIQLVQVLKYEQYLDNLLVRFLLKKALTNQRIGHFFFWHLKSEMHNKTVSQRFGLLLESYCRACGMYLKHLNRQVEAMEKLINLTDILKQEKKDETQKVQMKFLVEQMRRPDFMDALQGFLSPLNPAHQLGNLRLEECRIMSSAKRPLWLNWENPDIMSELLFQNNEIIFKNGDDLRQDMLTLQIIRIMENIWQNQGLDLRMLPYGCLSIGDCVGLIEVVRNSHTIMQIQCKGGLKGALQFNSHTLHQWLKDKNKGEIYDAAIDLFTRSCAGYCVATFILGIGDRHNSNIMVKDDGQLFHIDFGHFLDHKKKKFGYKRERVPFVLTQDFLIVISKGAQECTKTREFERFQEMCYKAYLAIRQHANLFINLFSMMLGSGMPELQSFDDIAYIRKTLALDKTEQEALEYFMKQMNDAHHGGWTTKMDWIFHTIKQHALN

in vitro = settings: human, liver microsomes
[2] = Clearance in rat; type: ADME, organism-based; settings: in vivo
[3] = Ratio of drug level in brain to plasma in CD-1 mouse at 15 mg/kg, po at 0.5 hr; type: ADME, organism-based; parameters: dose 15 mg/kg, route oral; settings: read-out: BPR
[4] = Half life in po dosed CD-1 mouse; type: ADME, organism-based; settings: in vivo
[5] = Ratio of drug level in brain to plasma in CD-1 mouse at 15 mg/kg, po at 4 hrs; type: ADME, organism-based; parameters: dose 15 mg/kg, route oral; settings: read-out: BPR
[6] = Plasma protein binding in CD-1 mouse; type: ADME, cell-free; settings: read-out: PPB (converted)
[7] = Ratio of drug level in brain to plasma in CD-1 mouse at 15 mg/kg, po measured at 0.5 hrs; type: ADME, organism-based; parameters: dose 15 mg/kg, route oral; settings: read-out: BPR
[8] = molecular target: Serine/threonine-protein kinase mTOR (Homo sapiens, UniProt P42345); assay: Inhibition of human recombinant mTOR (1360 to 2549 amino acids) assessed as reduction in phosphorylation of (GFP)-4-EBP1 after 30 mins by FRET assay; settings: read-out: Ki(app)

SMILES: CC(=O)N1CC(c2cc3nc(-c4cnc(N)nc4)nc(N4CCOCC4)c3s2)C1
efflux ratio at 2 h, 5 µM (mouse Bcrp1): 43

SMILES: c1cc(-c2nc(N3CCOCC3)c3sccc3n2)c2cn[nH]c2c1
efflux ratio at 2 h, 5 µM (mouse Bcrp1): 1
EC50 (PC-3): 3600 nM
IC50 [1]: 36 nM
CLhep predicted (in vitro): 16 mL/min/kg

SMILES: CC(F)(F)c1cc2nc(-c3cnc(N)nc3)nc(N3CCOCC3)c2s1
efflux ratio at 2 h, 5 µM (mouse Bcrp1): 1.7

SMILES: Nc1ncc(-c2nc(N3CCOCC3)c3sc(C4CNC4)cc3n2)cn1
efflux ratio at 2 h, 5 µM (mouse Bcrp1): 22

Further lines, results first:

efflux ratio at 2 h, 5 µM (mouse Bcrp1): 5.4
SMILES: Cc1c(C(C)(C)O)sc2c(N3CCOCC3)nc(-c3cnc(N)nc3)nc12

efflux ratio at 2 h, 5 µM (mouse Bcrp1): 1
EC50 (PC-3): 364 nM
clearance [2]: 238 mL/min/kg
IC50 [1]: 9 nM
CLhep predicted (in vitro): 11 mL/min/kg
SMILES: Cc1csc2c(N3CCOCC3)nc(-c3cnc(N)nc3)nc12

Kp at 0.5 h [3]: 0.3
half-life [4]: 2.2 h
Kp at 4 h [5]: 0.2
fraction unbound [6]: 0.198
CLhep predicted (in vitro): 4 mL/min/kg
Kp at 0.5 h [7]: 0.2
Ki [8]: 30 nM
SMILES: CC(C)(O)c1cc2nc(-c3cnc(N)nc3)nc(N3CCOCC3)c2s1
